Assay results published in US20140345648A1, “Oral Healthcare, Products and Methods Therefor” (OZOSPA HOLDINGS LIMITED, priority 2011, published 2014).

What was measured:
[1] = tested on: Streptococcus mutans ATCC 25175; assay: Challenge test of powder product, liquid product, xylitol and bicarbonate of soda (based on B.S.3286:1960), Example 4; format: cell-based; conditions: for Streptococcus mutans ATCC 25175 Population Levels T = 0: Day 0, powders 1:5, liquid neat; for Streptococcus mutans ATCC 25175 Population Levels T = 2: Day 1, 2 hrs after 10 mls of fresh sol'n added; for Streptococcus mutans ATCC 25175 Population Levels T = 1: Day 1, prior to 10 mls of fresh sol'n added; for Streptococcus mutans ATCC 25175 Population Levels T = 4: Day 2, 2 hrs after 10 mls of fresh sol'n added; for Streptococcus mutans ATCC 25175 Population Levels T = 3: Day 2, prior to 10 mls of fresh sol'n added; for Streptococcus mutans ATCC 25175 Population Levels T = 6: Day 3, 2 hrs after 10 mls of fresh sol'n added; for Streptococcus mutans ATCC 25175 Population Levels T = 5: Day 3, prior to 10 mls of fresh sol'n added; for Streptococcus mutans ATCC 25175 Population Levels T = 8: Day 4, 2 hrs after 10 mls of fresh sol'n added; for Streptococcus mutans ATCC 25175 Population Levels T = 7: Day 4, prior to 10 mls of fresh sol'n added
Procedure: (§1) The powder product and the liquid product were challenge tested against the organisms Streptococcus mutans and Porphyromonas gingivalis. […] The challenge method used was based on B.S.3286: 1960 “Method for Laboratory Evaluation of Disinfectant Activity of Quaternary Ammonium Compounds by Suspension Test Procedure”. This standard describes a test procedure for the laboratory evaluation of the activity of disinfectants, in which a suspension of viable microorganisms is added to solutions containing a pre-determined concentration of the disinfectant and the numbers of organisms surviving after a period of time is determined. A 1:5 solution of the powders with sterile deionised water was used for the challenge testing. The liquid product was used neat. The following organisms were used for the challenge testing: […] A modification will be made to the method by the addition of 10 ml of each solution each day, for 4 days. (The blank solution would have 10 ml of Neutralising buffer added.) […]

[2] = tested on: Porphyromonas gingivalis ATCC 3327; assay: as above; format: cell-based; conditions: for Porphyromonas gingivalis ATCC 3327 Population Levels T = 0 / Porphyromonas gingivalis ATCC 3327 Population Levels T = 2 / Porphyromonas gingivalis ATCC 3327 Population Levels T = 1 / Porphyromonas gingivalis ATCC 3327 Population Levels T = 4 / Porphyromonas gingivalis ATCC 3327 Population Levels T = 3 / Porphyromonas gingivalis ATCC 3327 Population Levels T = 6 / Porphyromonas gingivalis ATCC 3327 Population Levels T = 5 / Porphyromonas gingivalis ATCC 3327 Population Levels T = 8 / Porphyromonas gingivalis ATCC 3327 Population Levels T = 7: Table 7; for Porphyromonas gingivalis ATCC 3327 Population Levels T = 0: Day 0, powders 1:5, liquid neat; for Porphyromonas gingivalis ATCC 3327 Population Levels T = 2: Day 1, 2 hrs after 10 mls of fresh sol'n added; for Porphyromonas gingivalis ATCC 3327 Population Levels T = 1: Day 1, prior to 10 mls of fresh sol'n added; for Porphyromonas gingivalis ATCC 3327 Population Levels T = 4: Day 2, 2 hrs after 10 mls of fresh sol'n added; for Porphyromonas gingivalis ATCC 3327 Population Levels T = 3: Day 2, prior to 10 mls of fresh sol'n added; for Porphyromonas gingivalis ATCC 3327 Population Levels T = 6: Day 3, 2 hrs after 10 mls of fresh sol'n added; for Porphyromonas gingivalis ATCC 3327 Population Levels T = 5: Day 3, prior to 10 mls of fresh sol'n added; for Porphyromonas gingivalis ATCC 3327 Population Levels T = 8: Day 4, 2 hrs after 10 mls of fresh sol'n added; for Porphyromonas gingivalis ATCC 3327 Population Levels T = 7: Day 4, prior to 10 mls of fresh sol'n added; for effect against the Porphyromonas gingivalis population (in words): controlled laboratory test
Procedure: as §1

| Compound | Streptococcus mutans ATCC 25175 Population Levels T = 0 [1] | Streptococcus mutans ATCC 25175 Population Levels T = 2 [1] | Streptococcus mutans ATCC 25175 Population Levels T = 1 [1] | Streptococcus mutans ATCC 25175 Population Levels T = 4 [1] | Streptococcus mutans ATCC 25175 Population Levels T = 3 [1] | Streptococcus mutans ATCC 25175 Population Levels T = 6 [1] | Streptococcus mutans ATCC 25175 Population Levels T = 5 [1] | Streptococcus mutans ATCC 25175 Population Levels T = 8 [1] | Streptococcus mutans ATCC 25175 Population Levels T = 7 [1] | reduction in the Streptococcus mutans population ([1]; over the 5 days, Example 4) | Porphyromonas gingivalis ATCC 3327 Population Levels T = 0 [2] | Porphyromonas gingivalis ATCC 3327 Population Levels T = 2 [2] | Porphyromonas gingivalis ATCC 3327 Population Levels T = 1 [2] | Porphyromonas gingivalis ATCC 3327 Population Levels T = 4 [2] | Porphyromonas gingivalis ATCC 3327 Population Levels T = 3 [2] | Porphyromonas gingivalis ATCC 3327 Population Levels T = 6 [2] | Porphyromonas gingivalis ATCC 3327 Population Levels T = 5 [2] | Porphyromonas gingivalis ATCC 3327 Population Levels T = 8 [2] | Porphyromonas gingivalis ATCC 3327 Population Levels T = 7 [2] | effect against the Porphyromonas gingivalis population (in words) [2] |
| --- | --- | --- | --- | --- | --- | --- | --- | --- | --- | --- | --- | --- | --- | --- | --- | --- | --- | --- | --- | --- |
| O=C([O-])O.[Na+] [Bicarbonate of Soda solution, Sodium Bicarbonate] | 1.5 × 10^7 cfu/ml | 3.4 × 10^5 cfu/ml | 1.8 × 10^6 cfu/ml | 3.2 × 10^4 cfu/ml | 6.7 × 10^4 cfu/ml | 2.8 × 10^3 cfu/ml | 7.7 × 10^3 cfu/ml | 10 cfu/ml | 1.2 × 10^2 cfu/ml | 6 log | 2.5 × 10^6 cfu/ml | 3.1 × 10^5 cfu/ml | 5.9 × 10^5 cfu/ml | 1.1 × 10^5 cfu/ml | 1.2 × 10^5 cfu/ml | 3.3 × 10^4 cfu/ml | 2.4 × 10^4 cfu/ml | 2.8 × 10^3 cfu/ml | 4.8 × 10^3 cfu/ml | did not appear to be effective on its own |
| OC[C@@H](O)[C@H](O)[C@@H](O)CO [Xylitol solution, Xylitol] | 1.5 × 10^7 cfu/ml | 5.2 × 10^5 cfu/ml | 7.8 × 10^6 cfu/ml | 2.6 × 10^4 cfu/ml | 1.0 × 10^5 cfu/ml | 1.6 × 10^4 cfu/ml | 1.0 × 10^4 cfu/ml | <10 cfu/ml | 30 cfu/ml | – | 2.6 × 10^6 cfu/ml | 1.9 × 10^3 cfu/ml | 9.1 × 10^3 cfu/ml | <10 cfu/ml | 20 cfu/ml | <10 cfu/ml | <10 cfu/ml | <10 cfu/ml | <10 cfu/ml | reasonably effective |
